“Also recorded” adds a separate entry of the source.
Experiments:
[1] = molecular target: purified sodium, potassium ATPase enzyme (Na-K ATPase); conditions: read-out: IC50, displaced ouabain from its binding sites; Ferrari et al. 1998; cited from earlier work
[2] = tested on: other receptors involved in blood pressure regulation or hormonal control; conditions: Ferrari et al. 1998; cited from earlier work
cancer cell lines = test: proliferation of cancer cell lines; format: cell-based; conditions: for decrease of concentration effective for inhibiting proliferation of cancer cells: in combination with a steroid signal modulator (Casodex)
Source text: The concentration at which a cardiac glycoside is effective as part of an antiproliferative treatment may be further decreased by combination with an additional agent that negatively regulates HIF-responsive genes, such as a redox effector or a steroid signal modulator. […] Therefore, in certain embodiments, the invention provides combination therapies of cardiac glycosides with, for example, steroid signal modulators and/or redox effectors. Additionally, cardiac glycosides may be combined with radiation therapy, taking advantage of the radiosensitizing effect that many cardiac glycosides have.

[3] = tested on: A549(ROS) tumor cell line; test: ROS levels by FACS; format: cell-based, human; conditions: normoxia, 4 hrs
Description: (§1) Thirty minutes prior to the termination of incubation period, 2,7-dichlorofluorescin diacetate (CFH-DA, […]) was added to the cells and incubated for the last 30 min at 37° C. The ROS levels were determined by FACS analysis.

VEGF = VEGF secretion in tumor cells; format: cell-based
[4] = tested on: Panc-1 human pancreatic tumors; test: Panc-1 human pancreatic tumor xenograft; format: in vivo, nude mice; conditions: Gemcitabine 40 mg/kg q3d×4; for Final Tumor weight Day 25 (Mean): BNC1 20 mg/ml s.c. osmotic pump 0.5 μl/hr, n=8; for % TGI: Day 25, BNC1 20 mg/ml s.c. C.I.
Description: (§2) Female nude mice (nu/nu) between 5 and 6 weeks of age weighing approximately 20 g were implanted subcutaneously (s.c.) by trocar with fragments of human tumors harvested from s.c. grown tumors in nude mice hosts. When the tumors were approximately 60-75 mg in size (about 10-15 days following inoculation), the animals were pair-matched into treatment and control groups. Each group contains 8-10 mice, each of which was ear tagged and followed throughout the experiment.
(§3) The administration of drugs or controls began the day the animals were pair-matched (Day 1). Pumps (Alzet® Model 2002) with a flow rate of 0.5 μl/hr were implanted s.c. between the shoulder blades of each mice. Mice were weighed and tumor measurements were obtained using calipers twice weekly, starting Day 1. These tumor measurements were converted to mg tumor weight by standard formula, (W^2×L)/2. The experiment is terminated when the control group tumor size reached an average of about 1 gram. Upon termination, the mice were weighed, sacrificed and their tumors excised. The tumors were weighed and the mean tumor weight per group was calculated.
The control animals received pumps containing vehicle (50% DMSO in DMEM). The mice treated with standard chemotherapy agent received intra-peritoneal injections of Gemcitabine at 40 mg/kg every 3 days for 4 treatments (q3d×4). Each data point represent average tumor weight (n=8) and error bars indicate SEM.
Gem was also included in the experiment as a comparison.

[5] = tested on: Caki-1 human renal cancer xenograft; test: Caki-1 human renal cancer xenograft; format: in vivo, nude mice; conditions: for Final Tumor weight Day 22 (Mean): BNC1 20 mg/ml s.c. pump 0.5 μl/hr, n=10; for Final Tumor weight Day 22 (Mean) / % TGI: Cytoxan 100 or 300 ip; for % TGI: Day 22, BNC1 20 mg/ml s.c. C.I.
Description: as §2, §3
Cytoxan (q1d×1) was injected at 100 mg/kg (Cyt 100) or 300 mg/kg (Cyt 300).

[6] = tested on: A549 human non-small-cell-lung carcinoma; test: A549 human non-small-cell-lung carcinoma xenograft; format: in vivo, nude mice; conditions: for animals with tumor at the end of the experiment: 8 animals per group; for % Weight Change at Day 38 / Final Tumor weight Day 38 (Mean) / % TGI: Carboplatin 100 mg/kg ip qd×1; for % Weight Change at Day 38 / Final Tumor weight Day 38 (Mean): n=8; for % TGI: Day 38, BNC1 20 mg/ml s.c. C.I.
Description: as §2, §3
Carboplatin (q1d×1) was injected at 100 mg/kg (Carb).

[7] = molecular target: Na^+/K^+-ATPase α peptide isoforms; conditions: four α peptide isoforms, almost all mammalian species; cited from earlier work
[8] = cited from earlier work; for max. plasma concentration: in vivo
[9] = tested on: A549 (NSCLC) Sentinel Line; test: Sentinel Line reporter assay (FACS, FDG); format: cell-based, human; conditions: 40 hrs; for reporter activity / cell death: agent alone; for reporter activity: mitoxantrone 8 nM, paclitaxel 1.5 nM, carboplatin 15 μM, gemcitabine 2.5 nM, Iressa 4 μM; for cell death: Sentinel Lines
Description: The expression level of beta-galactosidase gene in sentinel lines was determined by using a fluorescent substrate fluorescein di-B-D-Galactopyranside (FDG, Marker Gene Tech, #M0250) introduced into cells by hypotonic shock. Cleavage by beta-galactosidase results in the production of free fluorescein, which is unable to cross the plasma membrane and is trapped inside the beta-gal positive cells. Briefly, the cells to be analyzed are trypsinized, and resuspended in PBS containing 2 mM FDG (diluted from a 10 mM stock prepared in 8:1:1 mixture of water: ethanol: DMSO). The cells were then shocked for 4 minutes at 37° C. and transferred to FACS tubes containing cold 1×PBS on ice. Samples were kept on ice for 30 minutes and analyzed by FACS in FL1 channel.
Sentinel Line cells with beta-galactosidase reporter gene were plated at 1×10^5 cells/10 cm dish. […] After 40 hrs, the cells were trypsinized and the expression level of reporter gene was determined by FDG loading.
In experiments of FIG. 10, the A549 sentinel line was incubated with Gemcitabine in the presence or absence of indicated Bionaut compounds (including the cardiac glycoside compound BNC4) for 40 hrs. The reporter activity was measured by FACS analysis.

HIF-1α [10] = test: HIF-1α Western blot in tumor cells; format: cell-based, human; conditions: Hep3B, Caki-1 or Panc-1 cells under hypoxia
Description: For HIF1-alpha Western blots, Hep3B cells were seeded in growth medium at a density of 7×10^6 cells per 100 mm dish. […] Samples were fractionated on 3-8% Tris-Acetate gel (Invitrogen NUPAGE system) by sodium dodecyl sulfate (SDS)-polyacrylamide gel electropherosis and transferred onto nitrocellulose membrane. […] Anti-Beta-actin monoclonal antibody (Abcam, ab6276-100) was used at a 1:5000 dilution with a 30-minute incubation at room temperature.
The cells were lysed and proteins were resolved by SDS-PAGE and transferred to a nylon membrane.
as §1

HIF-1α [11] = test: HIF-1α induced under normoxia by PHD inhibitor L-mimosone, Western blot; format: cell-based, human; conditions: Hep3B cells, 200 μM L-mimosone, 18 h
Description: Abundance of HIF1α and β-actin was determined by western blotting.

## CC12CCC(O)CC1CCC1C2CCC2(C)C(O)(c3ccoc3)CCC12O (stereo not drawn) [PST 2238, 17beta-(3-furyl)-5beta-androstane-3beta, 14beta, 17alpha-triol]
[1]
  IC50: 1700 nM
[2]
  interaction with other receptors: without interacting

## C[C@@H]1O[C@@H](O[C@H]2C[C@@H](O)[C@]3(CO)[C@H]4[C@H](O)C[C@]5(C)[C@@H](C6=CC(=O)OC6)CC[C@]5(O)[C@@H]4CC[C@]3(O)C2)[C@H](O)[C@H](O)[C@H]1O [BNC1, ouabain]
Cancer cell lines
  decrease of concentration effective for inhibiting proliferation of cancer cells: 5 fold
[3]
  ROS production: induces ROS production
VEGF
  secretion of the angiogenesis factor VEGF: inhibits
[4]
  Final Tumor weight Day 25 (Mean): 200 mg
  % TGI: 82.15%
[4]; BNC1 20 mg/ml s.c. pump
  tumor growth (in words): significantly reduce tumor growth
[5]
  Final Tumor weight Day 22 (Mean): 314.9 mg
  % TGI: 81.45%
[5]; BNC1 20 mg/ml s.c. pump, Cytoxan 100 or 300 mg/kg
  anti-tumor activity (in words): potent anti-tumor agent when used alone
[6]
  animals with tumor at the end of the experiment: none of the experimental animals showed any signs of tumor
  % TGI: 100.00%
[6]; BNC1 20 mg/ml s.c. pump, Carboplatin 100 mg/kg
  anti-tumor activity (in words): potent anti-tumor activity
[6]; BNC1 20 mg/ml s.c. pump
  % Weight Change at Day 38: 21%
  Final Tumor weight Day 38 (Mean): 0.0 mg
[7]
  Kd: ≤ 1 nM
[8]
  max. plasma concentration: about 0.03 μg/mL

## COc1cc2ncnc(Nc3ccc(F)c(Cl)c3)c2cc1OCCCN1CCOCC1 [Iressa]
[9]
  reporter activity: reduction

## CC(=O)O[C@H]1C(=O)[C@@]2(C)[C@H]([C@H](OC(=O)c3ccccc3)[C@]3(O)C[C@H](OC(=O)[C@H](O)[C@@H](NC(=O)c4ccccc4)c4ccccc4)C(C)=C1C3(C)C)[C@]1(OC(C)=O)CO[C@@H]1C[C@@H]2O [paclitaxel]
[9]
  cell death: increases
  reporter activity: increases

## N.N.O=C([O-])C1(C(=O)[O-])CCC1.[Pt+2] [Carboplatin]
[9]
  cell death: increases
  reporter activity: increases
[6]
  animals with tumor at the end of the experiment: all 8
  % TGI: 39.50%
[6]; BNC1 20 mg/ml s.c. pump
  % Weight Change at Day 38: 16%
  Final Tumor weight Day 38 (Mean): 509.75 mg

## C[C@@H]1O[C@@H](O[C@@H]2C=C3CC[C@@H]4[C@H](CC[C@]5(C)[C@@H](c6ccc(=O)oc6)CC[C@]45O)[C@@]3(C)CC2)[C@H](O)[C@H](O)[C@H]1O [BNC4, proscillaridin]
Cancer cell lines
  decrease of concentration effective for inhibiting proliferation of cancer cells: 5 fold
Cancer cell lines; test system not named at the place, read-out: predicted IC50
  IC50: 2 to 8 ng/mL
[9]; incubated with Gemcitabine plus compound
  Gemcitabine-induced stress response (reporter activity): significantly shift the reporter activity to the left
HIF-1α [10]
  potency in inhibiting HIF-1α expression relative to BNC1: about 10 times
HIF-1α [11]
  HIF-1α accumulation induced by L-mimosone: blocks HIF-1α induction; also recorded: eliminated HIF-1α accumulation
VEGF
  secretion of the angiogenesis factor VEGF: inhibits
[8]; according to the literature
  plasma half-life in human: about 40 hours
[8]
  max. plasma concentration: about 0.001 μg/mL

## O=C1c2c(O)ccc(O)c2C(=O)c2c(NCCNCCO)ccc(NCCNCCO)c21 [mitoxanthrone, mitoxantrone]
[9]
  cell death: increases
  reporter activity: increases

## O=P1(N(CCCl)CCCl)NCCCO1 (centres unmarked) [Cytoxan]
[5]
  Final Tumor weight Day 22 (Mean): 769 mg
  % TGI: 54.70%
[5]; listed as Cytoxan300
  Final Tumor weight Day 22 (Mean): 93.7 mg
  % TGI: 94.48%

## Nc1ccn([C@@H]2O[C@H](CO)[C@@H](O)C2(F)F)c(=O)n1 [Gemcitabine]
[9]
  reporter activity: elevated reporter activity
[4]
  Final Tumor weight Day 25 (Mean): 701.3 mg
  % TGI: 37.40%

From patent US20060135443A1, “Use of Na*/K*-ATPase inhibitors and antagonists thereof” (Bionaut Pharmaceuticals, Inc., priority 2004, published 2006)
